In patent US20170000740A9, “COMBINATION THERAPEUTIC NANOPARTICLES” (UNIVERSITY OF GEORGIA RESEARCH FOUNDATION INC., priority 2013, published 2017):
pIC50: −log10 of the molar value.

Tested on: human prostate cancer PC-3 cells
Assay: Cytotoxic profile by MTT assay on human prostate cancer PC-3 cell line
Assay type: cell-based
Settings: incubation time=48 h

Row | SMILES | pIC50 (Homo sapiens) | pIC50
1 | CC(=O)Oc1ccccc1C(=O)O [Aspirin] | < 4.00 | 
2 | N.N.[Cl][Pt][Cl] [Cisplatin] |  | 4.85
